From patent EP4721753A1, “PHARMACEUTICAL COMPOSITION FOR PREVENTING OR TREATING CORONAVIRUS INFECTIOUS DISEASES COMPRISING CELL-PERMEABLE PEPTIDE-NUCLEIC ACID OLIGOMER AS ACTIVE INGREDIENT” (GiftedMS Co., Ltd., priority 2023, dated 2024)
Where “and” joins values, the source holds several entries; their conditions need not be identical. Identical values can stand only once. Like-named read-outs stand apart in the source and are kept apart here.

Assays:
Assay type in all cases: cell-based
HCoV-OC43 = test: qRT-PCR evaluation of antiviral efficacy (viral RNA level in culture supernatant), HCT8 cells infected with HCoV-OC43; conditions: 1 µM PNA oligomer; HCT8 cells infected with HCoV-OC43 at 500 TCID50; viral RNA from cell supernatant on Day 3 after infection
Description: In order to analyze the level of viral RNA in viral particles present in a virus culture solution to determine how well the constructed PNA oligomer-based drugs inhibit viral genetic replication, qRT-PCR was performed.
Specifically, HCT8 cells cultured in 6-well plates one day before for drug screening were infected with HCoV-OC43 at a dose of 500 TCID50 using a serum-free RPMI medium. At the same time as infection, the cells were also treated with 1 µM of PNA oligomer, and after 30 minutes, the cells were washed twice with serum-free RPMI, and then the medium was replaced with an RPMI-Complete medium (containing 10% FBS and 1% penicillin/streptomycin) and the cells were treated with 1 µM of PNA oligomer. On Day 3 after infection, viral RNA was extracted from 140 µL of the cell supernatant using a QIAamp viral RNA mini kit manufactured by Qiagen. Virus extraction was performed according to the kit manual. The viral titer of the extracted viral RNA was measured by real-time PCR using a One step TB green kit manufactured by Takara. The primers used are as follows. HCoV-OC43 primer; Nucleoprotein (NP) gene (5'-[…]-3', 5'-[…]-3'). Real-time PCR conditions are as follows. Temperature Stage 1: Reverse transcription 42°C 5 min, 95°C 10 sec, 1 Cycle. Stage 2: PCR reaction 95°C 5 sec, 60°C 34 sec, 35 Cycles. Stage 3: melting curve analysis 95°C 15 sec, 65°C 60 sec, 95°C 15 sec.

SARS-CoV-2 = conditions: 1000 nM; Vero cells pre-incubated 2 hours; viral RNA 24 hours after infection
SARS-CoV-2 virus = conditions: Vero cells, 1000 to 0.49 nM, 2-fold dilution, viral RNA after 24 hours, three repeated experiments

Row | Molecule | Inhibition% (HCoV-OC43) [%] | Inhibition% (SARS-CoV-2) [%] | IC50 (SARS-CoV-2 virus) | IC50 (SARS-CoV-2 virus; listed as Paxlovid (P.C)-1) [nM] | IC50 (SARS-CoV-2 virus; listed as Paxlovid (P.C)-2) [nM] | IC50 (SARS-CoV-2 virus; listed as Paxlovid (P.C)-3) [nM]
1 | CC(C)(C)[C@H](NC(=O)C(F)(F)F)C(=O)N1C[C@H]2[C@@H]([C@H]1C(=O)N[C@H](C#N)C[C@@H]1CCNC1=O)C2(C)C [PF07321332, Nirmatrelvir] | 97.98 | – | – | – | – | –
2 | Paxlovid | – | 96.03 | 317 nM and 328 nM and 464 nM | 317 | 328 | 464
